Results reported in US20250120942A1, “BRAIN FUNCTION IMPROVING AGENT” (OSAKA UNIVERSITY, priority 2021, published 2025).

Columns and labels:
[1] = tested on: scopolamine-induced amnesia mouse; experiment: Y-maze test, short-term working memory of scopolamine-induced amnesia mouse (Test Example 2); type: in vivo, ddY mouse; details: oral 30 mg/kg, scopolamine 1 mg/kg i.p.; FIG. 2(A),(B)
Protocol: The effect of inhibiting lowering of short-term memory was examined by orally or subcutaneously (intraperitoneally) administering the compound A to the mouse.
(§1) 7-weeks-old male ddY mice were purchased from Japan SLC, Inc. and subjected to the experiment after one week habituation period. The animals were reared in the rearing chamber provided with air conditioner (under the condition that the temperature was 22° C.±1° C., the relative humidity was 50±10%, and the irradiation time was 12 hours (8:00 to 20:00)). The feeding method was that the commercially available MF powdery feed (manufactured by Oriental Yeast Co., ltd.) and tap water were taken freely.
The compound A prepared according to the procedure described in Manufacturing Example 1 was dissolved in 2.5% DMSO solution in advance. There were 15 mice in each group, and the 30 mg/kg compound administration group and the 10 mg/kg compound administration group were established and orally administered. The mice of the control group and Vehicle group were orally administered with only 2.5% DMSO solution. In the same manner the compound B and the compound C were orally administered to 10 mice at a dose of 30 mg/kg respectively. Each mouse of the administration groups of the compound A to C and the vehicle group was intraperitoneally administered with scopolamine hydrobromide (manufactured by Sigma-Aldrich Japan S1875) (a dose of 1 mg/kg) which is muscarinic acetylcholine receptor antagonist 30 minutes after the administration. The mice of the control group which were not administered with scopolamine hydrobromide were intraperitoneally administered with (Japanese Pharmacopoeia) physiological saline solution (OTSUKA NORMAL SALINE 3311401A2026). At 30 minutes after the final administration, Y-maze test was conducted, and the working memory was evaluated. The test using the mice orally administered was separately conducted under the same condition as that described above for comparative evaluation of the intraperitoneal administration.
The Y-maze manufactured by Brain Science. idea Co., Ltd. was used for the test. The maze was the maze 3 courses of which were made into Y-letter shape having one selection point and arranged at interval of an angle of 120 degree. […] The mouse put on the gray course (made of polyvinyl chloride) was kept in the conditions and the mouse can see nothing but the upper part. Any one of the 3 courses of the maze was set as a starting point. After placing the mouse quietly at the starting point, the number of the times the mouse entered each course was record per 8 minutes, and as well as which course and in what order the mouse entered it. The ratio of the number of three consecutive entries into different courses (the number of the alternation behavior) to the total number of the selections was calculated as Spontaneous Alternation (%) according to the following formula and was used as an index of the short-term working memory.
From the results obtained, the mean (Mean) and the standard error (SEM) were calculated. The significant difference between the control group and the Vehicle group and between the compound A administration group and the Vehicle group was assessed by Turkey-Kramer's test. The level of significance was set to *P<0.05 and **p<0.01.

[2] = tested on: extracellular acetylcholine in the cerebral cortex; experiment: Amount of extracellular acetylcholine in mouse brain by in vivo microdialysis (Test Example 1); design: species or system ddY mouse; details: for amount of extracellular acetylcholine in the cerebral cortex (ratio to basic released amount): oral 30 mg/kg, measured for 120 minutes after administration, compared with before administration, FIG. 1
Protocol: The compound A, B, and C were administered orally to the mouse and the effect on the amount of extracellular acetylcholine in the brain was examined. The brain microdyalysis method using the mouse is proposed as a test for evaluating cognitive dysfunction including Alzheimer type dementia. The brain microdyalysis method is a system that can monitor the variation of extracellular neurotransmitter release in real time at the local parts in the brain while the test animals are moving freely without anesthesia.
as §1
In the two days before the start of the experiment, the fixing operation of the guide cannula for inserting the dialysis probe in the mouse was conducted in advance. Under the deep anesthetized conditions, the guide cannula (depth 4 mm) (manufactured by Eicom Corp.,) was inserted in and fixed on cerebral cortex prefrontal area (which was 1.9 mm forward and 0.5 mm right side from the bregma and to which the depth from cranial surface was 0.8 mm). Buprenorphine (0.01 mg/kg manufactured by Sigma-Aldrich Japan) was administered to the mouse as analgesic after the operation. Each mouse was reared in the separate cage after the operation.
In the step of measuring extracellular acetylcholine in the brain, the dialysis probe (membrane length 3 mm) (manufactured by Eicom Corp.,) was inserted in the guide cannula and the Ringer's solution in the Japanese Pharmacopeia (containing NaCl (147.2 mM), KCl (4.0 mM), and CaCl2 (2.2 mM); manufactured by FUSO CHEMICAL CO., LTD.) was perfused at the flow velocity of 1 μL/min. The sample obtained by the perfusion was collected every 20 minutes and was immediately continuously automatically injected in the high-speed liquid chromatography/electrochemical detector (HPLC/ECD) system (manufactured by Eicom Corp., HTEC-500) together with the internal standard material (isopropylhomocholine, 250 fmol) and acetylcholine was measured under the condition described below.
• Column: Eicompak AC-GEL (2.0 mm; i.d.×150 mm) (manufactured by Eicom Corp.,) • Precolumn: PC-05-03 (3.0 mm; i.d.×40 mm) (manufactured by Eicom Corp.,) • Enzyme-immobilized column: AC-Enzympak (3.0 mm; i.d.) (manufactured by Eicom Corp.,) • Mobile Phase: 50 mM potassium hydrogen carbonate buffer containing 400 mg/L sodium decansulfonic acid and 134 μM EDTA (pH 8.3) • Flow Velocity: 150 μl/min. • Temperature of column: 33° C. • Applied voltage of ECD: +450 mV • Reference electrode: Ag/AgCl electrode • Work electrode: platinum electrode
The compound A prepared according to the procedure described in Manufacturing Example 1 was dissolved in 2.5% DMSO solution in advance to prepare for the test. […] The amount of the extracellular acetylcholine released was measured by the procedure described above in (a) Used animal and Rearing Procedure in real time for 120 minutes after the administration. The mouse in Vehicle group took only 2.5% DMSO solution orally in the same way and the amount of the extracellular acetylcholine was measured. […]

[3] = mouse, oral administration; cited from earlier work
[4] = tested on: cranial nerve cell SH-SY5Y; details: SH-SY5Y in vitro; cited from earlier work
acetylcholine esterase = acetylcholine esterase (Homo sapiens, UniProt P22303); experiment: Inhibiting action of acetylcholine esterase (data not described); type: biochemical
Sequence of acetylcholine esterase (P22303 32-614): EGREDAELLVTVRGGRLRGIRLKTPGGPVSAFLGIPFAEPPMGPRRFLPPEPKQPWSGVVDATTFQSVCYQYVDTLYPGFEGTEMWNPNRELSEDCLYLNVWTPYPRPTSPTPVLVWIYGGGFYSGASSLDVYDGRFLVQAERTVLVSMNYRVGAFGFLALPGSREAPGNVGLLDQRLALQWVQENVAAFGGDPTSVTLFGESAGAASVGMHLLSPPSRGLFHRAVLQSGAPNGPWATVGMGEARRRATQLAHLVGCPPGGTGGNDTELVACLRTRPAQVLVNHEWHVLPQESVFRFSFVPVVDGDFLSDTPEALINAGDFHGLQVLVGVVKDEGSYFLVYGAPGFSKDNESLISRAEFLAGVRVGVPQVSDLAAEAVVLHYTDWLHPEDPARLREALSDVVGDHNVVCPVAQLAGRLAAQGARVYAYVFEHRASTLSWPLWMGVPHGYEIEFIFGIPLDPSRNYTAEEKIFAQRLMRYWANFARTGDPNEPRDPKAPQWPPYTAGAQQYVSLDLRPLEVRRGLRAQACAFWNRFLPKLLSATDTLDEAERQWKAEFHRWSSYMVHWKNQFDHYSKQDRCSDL

amyloid β = details: mouse model of the Alzheimer's disease; cited from earlier work
[5] = cited from earlier work
[6] = tested on: cytotoxicity induced by β-oligomer; details: cited from earlier work

## O=C1CC[C@H](Cc2ccc(O)c(O)c2)O1 [compound B, (R)-5-(3,4-dihydroxyphenyl)-γ-valerolactone, reference compound]
[1]
  ameliorating the impairment of short-term working memory (Spontaneous Alternation): not confirmed at all
[2]
  amount of extracellular acetylcholine in the cerebral cortex (ratio to basic released amount): not significant change

## O=C1CC[C@H](Cc2cc(O)c(O)c(O)c2)O1 [compound C, (R)-5-(3,4,5-trihydroxyphenyl)-γ-valerolactone, reference compound]
[1]
  ameliorating the impairment of short-term working memory (Spontaneous Alternation): not confirmed at all
[2]
  amount of extracellular acetylcholine in the cerebral cortex (ratio to basic released amount): not significant change

## O=C1CCC(Cc2cc(O)cc(O)c2)O1 (centres unmarked) [5-(3,5-dihydroxyphenyl)-γ-valerolactone]
[3]
  sulfate conjugate and glucuronic acid conjugate in the serum: detected
[4]
  nerve cell proliferating action: significant nerve cell proliferating action
Acetylcholine esterase
  inhibiting action of acetylcholine esterase: do not provide inhibiting action
[2]; after the administration
  time until which the increased amount of free acetylcholine is maintained: ≤ 100 min

## O=C(O[C@@H]1Cc2c(O)cc(O)cc2O[C@@H]1c1cc(O)c(O)c(O)c1)c1cc(O)c(O)c(O)c1 [EGCg, epigallocatechingallate]
Amyloid β
  generation of amyloid β: inhibit the generation of amyloid β
[5]
  amount absorbed into the body after ingestion (bioavailability): extremely low

## O=C1CCC(Cc2ccc(O)cc2)O1 (centres unmarked) [5-(4-monohydroxyphenyl)-γ-valerolactone]
[6]
  cytotoxicity induced by β-oligomer: reduces the cytotoxicity
